We go through 3 compounds from paper PMC9923724, “Half sandwich-type osmium, ruthenium, iridium and rhodium complexes with bidentate glycosyl heterocyclic ligands induce cytostasis in platinum-resistant ovarian cancer cells and bacteriostasis in Gram-positive multiresistant bacteria” (Frontiers in Chemistry, 2023).

Assay [1] relates to L428 Hodgkin lymphoma cells. As to the kind of experiment: Cell proliferation on L428 cells (counted in Burker chamber). It is filed as cell-based. Particulars: head says SRB, cells counted using a Burker chamber. As to the method:
(§1) 3 × 10^3 Capan2 cells, 2 × 10^3 Saos cells and 8 × 10^3 L428 were plated to 96 well plates. Cells were treated with the compounds in the concentrations for 48 h. Then for Capan2 and Saos SRB assay was performed, L428 cells were counted using a Burker chamber. Data is represented as average ± SD, from three biological replicates; individual assays were performed in duplicates. Values were normalized for vehicle treated cells, absorbance for vehicle treated cells equals to 1. Normality was checked using the Shapiro-Wilk test. The Saos Os-7 dataset was normalized using the Box-Cox method, other datasets had normal distribution. Each complex was individually assessed for statistical significance using One-way ANOVA test followed by Dunnett’s post hoc test; all values were compared to the values of the lowest concentration. For better visibility the p values are presented in an excel sheet at https://figshare.com/s/2c942a812caea8869a67. Non-linear regression was performed on the Capan2 and Saos datasets.
Cells were seeded in 96 well plates the day before the assay. Cells were treated with the compounds for […]. Cells were counted using a Burker chamber. On each plate wells were designed to contain untreated cells. In calculations the readings for these wells was considered as 1 and all readings were expressed relative to these values.

Assay [2] concerns ID8 ovarian cancer cells. Description: SRB assay (48 h) on ID8 cells. It counts as cell-based. The procedure:
(§2) 3 × 10^3 A2780 cells, 2 × 10^3 ID8 cells and 4 × 10^3 primary fibroblasts were plated to 96 well plates. Cells were treated with the compounds in the concentrations indicated for either 4 h for an MTT assay or for 48 h for an SRB assay. Data is represented as average ± SD, from three biological replicates; individual assays were performed in duplicates. Values were normalized for vehicle treated cells, absorbance for vehicle treated cells equals to 1. Statistical significance was assessed using two-way ANOVA test comparing the free ligand and each complex as a complex-ligand pair. Before the test normality was assessed using the D’Agostino-Pearson test. The ID8 SRB Ir-7+L-7 dataset had lognormal distribution. […] All other datasets had normal distribution. For better visibility the p values are presented in an excel sheet at https://figshare.com/s/2c942a812caea8869a67. Non-linear regression was performed on the A2780 SRB and the ID8 SRB datasets.
(§3) ID8 cells were cultured in high glucose DMEM (4.5 g/L glucose) medium supplemented with 4% fetal calf serum, 2 mM glutamine, 1% penicillin-streptomycin, 1% ITS supplement (I3146).
(§4) The assay was performed similar to ([Kovács et al., 2019]). Cells were seeded in 96 well plates the day before the assay. Cells were treated with the compounds for 48 h. Cells were fixed with 10% trichloroacetic acid (TCA). Fixed cells were washed in distilled water 3 times followed by staining with SRB (0.4 m/V% dissolved in 1% acetic acid) for 10 min. Stained cells were washed in 1% acetic acid 5 times; acetic acid was removed and cells were left to dry. Protein-bound SRB was released by adding 100 µl 10 mM Tris base. Plates were measured in a plate photometer (Thermo Scientific Multiscan GO spectrophotometer, Waltham, MA, United States) at 540 nm. On each plate wells were designed to contain vehicle-treated cells. In calculations the readings for these wells was considered as 1 and all readings were expressed relative to these values.
(§5) Statistical analysis was performed using 8.0.1 version of Graphpad Prism. Values were tested for normal distribution using the D’Agostino and Pearson normality test. When necessary, values were log normalized or were normalized using the Box-Cox normalization method ([Box and Cox, 1964]) as indicated in the figure captions. Non-linear regression was performed using the built-in “[Inhibitor] vs. response—Variable slope (four parameters), least square fit” utility of Graphpad that yielded IC50 and Hill slope values.

In assay [3] the test system is Capan2 pancreatic adenocarcinoma cells. Description: SRB assay (48 h) on Capan2 cells. It is filed as cell-based. As to the method:
as §1
Capan2 cells were maintained in MEM, 10% fetal bovine serum, 1% Penicillin/Streptomycin, 2 mM Glutamine.
as §4, §5

Assay [4] has as its system ID8 ovarian cancer cells. As to the kind of experiment: MTT reduction assay (4 h) on ID8 cells. It is filed as cell-based. As to the method:
as §2, §3
MTT reduction assay measures the activity of mitochondrial complex I and can be used to detect toxicity ([Virág et al., 1998]; [Henslee et al., 2016]). The assay was performed similar to ([Bakondi et al., 2003]). Briefly, cells were plated in 96 well plates the day before the assay. Cells were treated with the compounds for 4 h, then MTT was added in 0.5 mg/ml final concentration and cells were incubated at 37°C in a cell incubator. Culture media was removed and the reduced MTT dye was dissolved in dimethyl-sulfoxide (DMSO) and plates were measured in a plate photometer (Thermo Scientific Multiscan GO spectrophotometer, Waltham, MA, United States) at 540 nm. On each plate wells were designed to contain untreated/vehicle-treated cells. In calculations the readings for these wells was considered as 1 and all readings were expressed relative to these values.

Assay [5] concerns vancomycin-resistant Enterococcus (VRE) clinical isolates. As to the kind of experiment: Broth microdilution MIC, clinical VRE isolates. It counts as cell-based, E. faecium. Particulars: for MIC against clinical VRE isolates (as a group): 3 clinical VRE isolates; for MIC, VRE 25 051: clinical isolate 25 051, nephrostoma; for MIC, VRE 25 051 / MIC, VRE 25 498 / MIC, VRE 27 085: 2018; for MIC, VRE 25 498: clinical isolate 25 498, rectal swab; for MIC, VRE 27 085: clinical isolate 27 085, wound. The procedure: The MIC values of the complexes were determined against the reference strains of S. aureus (ATCC29213) and E. faecalis. (ATCC29212) and against clinical VRE and MRSA isolates by microdilution assays (repeated at least twice in duplicates) as described in Materials and Methods. The numbers indicate how many isolates were susceptible to the compound out of those tested; i.e., 1/6 stands for 1 isolate was susceptible out of 6 tested. […] Cells were harvested and lysed. Cellular proteins was separated on a 10% SDS-PAGE gel and were blotted. Blots were probed with 4HNE antibody (top blot), the lower blot was stained with amido black. Arrows point at band of interest. Experiments were repeated three times and a representative blot is shown. On the blots brightness and contrast were adjusted. […] Each was matched to a substance and strain by its position over the x-axis categories. / Ir-7: ND and 0/3 (left plot) and ND and 0/6 (right plot) were matched to E. faecalis/VRE and S. aureus/MRSA by position only.
We used a set of clinical isloates of S. aureus and E. faecium that were collected at the Medical Center of the University of Debrecen (Hungary) between 01. 01. 2018.—31. 12. 2020. The clinical isolates were identified using a Microflex MALDI-TOF mass spectrometer (Bruker, Billerica, MA, United States). Antibiotic susceptibility of the isolates was tested following the European Committee on Antimicrobial Susceptibility Testing ([EUCAST, 2021]) guidelines valid at the time of collection.
Microdilution experiments were performed according to the standards of EUCAST ([EUCAST, 2021]). […] The inoculated plates were incubated for 24 h at 37°C then were assessed visually. […] All experiments were performed at least twice in duplicates.

Each structure is given as a SMILES string. Several values for one entry are separate records, joined by “and”; a condition that tells them apart may be missing. Equal values may be shown once.

A word on the IC50: it is the midpoint of a concentration-inhibition curve. Low readings indicate greater potency in that assay, high ones weaker potency in that assay. In the case of `Cc1c(C)c(C)[c-](C)c1C.F[P-](F)(F)(F)(F)F.O=C(OCC1OC(n2cc(-c3ccc4ccccc4n3)nn2)C(OC(=O)c2ccccc2)C(OC(=O)c2ccccc2)C1OC(=O)c1ccccc1)c1ccccc1.[Cl][Ir+2]` (mixture of isomers) [Ir-7], in assay [1], the “L428 maximal inhibition (cell count)” value is listed as greater than 90%. Besides, in the assay on ID8 ovarian cancer cells [2], the IC50 came out at 0.799 µM, the “ID8 SRB IC50” value was “submicromolar or low micromolar” and the “ID8 SRB Max. (maximal inhibition)” value is given as greater than 90%. For the same compound, in assay [3], the “Capan2 SRB Max. (maximal inhibition)” value is 48.83% and 1.93 µM corresponded to half-maximal inhibition (IC50). The “ID8 MTT Max. (maximal inhibition)” value in the assay on ID8 ovarian cancer cells [4] worked out at 19.23%. Further, in assay [5], the “MIC against clinical VRE isolates (as a group)” value (from here on “MIC … (as a group)”) was “no activity”; the “MIC, VRE 25 051” value is reported as 40< µM; the “MIC, VRE 25 498” value is given as 40< µM; the “MIC, VRE 27 085” value is 40< µM.

`Cc1ccc(C(C)C)cc1.F[P-](F)(F)(F)(F)F.O=C(OCC1OC(n2cc(-c3ccc4ccccc4n3)nn2)C(OC(=O)c2ccccc2)C(OC(=O)c2ccccc2)C1OC(=O)c1ccccc1)c1ccccc1.[Cl][Ru+]` (mixture of isomers) [Ru-7]: in assay [1], the “L428 maximal inhibition (cell count)” value is on record as 52.73%. Moreover, in the assay on ID8 ovarian cancer cells [2], the IC50 came out at 1.14 µM, the “ID8 SRB IC50” value is listed as “submicromolar or low micromolar” and the “ID8 SRB Max. (maximal inhibition)” value was greater than 90%. In assay [3], the “Capan2 SRB Max. (maximal inhibition)” value came out at 39.80% and the IC50 amounted to 1.39 µM. In addition, in the assay with ID8 ovarian cancer cells [4], the “ID8 MTT Max. (maximal inhibition)” value stood at 32.56%. Further, in assay [5], the “MIC … (as a group)” value is on record as 5 µM; the “MIC, VRE 25 051” value came out at 5 µM; the “MIC, VRE 25 498” value is listed as 5 µM; the “MIC, VRE 27 085” value is reported as 5 µM.

Consider `Cc1ccc(C(C)C)cc1.F[P-](F)(F)(F)(F)F.O=C(OCC1OC(n2cc(-c3ccc4ccccc4n3)nn2)C(OC(=O)c2ccccc2)C(OC(=O)c2ccccc2)C1OC(=O)c1ccccc1)c1ccccc1.[Cl][Os+]` (mixture of isomers) [Os-7], for which the “L428 maximal inhibition (cell count)” value in assay [1] was greater than 90%. In addition, in the assay on ID8 ovarian cancer cells [2], inhibition was half-maximal at 0.359 µM (IC50), the “ID8 SRB IC50” value is “submicromolar or low micromolar” and the “ID8 SRB Max. (maximal inhibition)” value is listed as greater than 90%. In assay [3], the “Capan2 SRB Max. (maximal inhibition)” value came to 59.11% and the IC50 came to 1.35 µM. The “ID8 MTT Max. (maximal inhibition)” value in the assay on ID8 ovarian cancer cells [4] is 75% and 74.90%. Moreover, in assay [5], the “MIC … (as a group)” value stood at 10 µM; the “MIC, VRE 25 051” value came to 10 µM; the “MIC, VRE 25 498” value is 10 µM; the “MIC, VRE 27 085” value stood at 10 µM.
